Reference: ChEMBL document CHEMBL4706485, “Development of cell-permeable peptide-based PROTACs targeting estrogen receptor α” (Eur J Med Chem, 2020)
One block for each molecule: values may come before it. The source made the active and inactive calls. No cut-off for these calls is given here. Square brackets hold non-standard residues; d marks the D form. Peptide text beside a SMILES is read from it. Hyp = O=C(O)[C@@H]1C[C@@H](O)CN1; Ahx = NCCCCCC(=O)O

How the values were obtained:
[1] = system: MCF7; assay: Induction of apoptosis in human MCF7 cells assessed as necrotic cells at 10 uM after 12 hrs by annexinV-FITC/PI staining based flow cytometric analysis (reference value: 0.7 to 1.1%); assay type: functional
[2] = molecular target: T1, von Hippel-Lindau disease tumor suppressor/Estrogen receptor (Homo sapiens) (UniProt P03372+P40337); assay: Protac activity at VHL/ERalpha in human MCF7 cells assessed as degradation of ERalpha protein level at 10 uM after 12 hrs by Western blot analysis; assay type: cell-based
[3] = system: MCF7; assay: Induction of apoptosis in human MCF7 cells assessed as viable cells at 10 uM after 12 hrs by annexinV-FITC/PI staining based flow cytometric analysis (reference value: 95.4 to 97.6%); assay type: functional; conditions: read-out: Activity
[4] = Drug uptake in human MCF7 cells at 10 uM FITC labelled form of compound after 12 hrs by flow cytometric analysis; assay type: ADME, cell-based; conditions: mcf7, 12 h
[5] = system: MCF7; assay: Induction of apoptosis in human MCF7 cells assessed as early apoptotic cells at 10 uM after 12 hrs by annexinV-FITC/PI staining based flow cytometric analysis (reference value: 0.8 to 1.6%); assay type: functional
[6] = system: MCF7; assay: Cytotoxicity against human MCF7 cells assessed as reduction in cell viability at 5 to 80 uM after 48 hrs by MTT assay; assay type: functional, cell-based; conditions: dose 5-80 µM
[7] = system: MCF7; assay: Induction of apoptosis in human MCF7 cells assessed as late apoptotic cells at 10 uM after 12 hrs by annexinV-FITC/PI staining based flow cytometric analysis (reference value: 0.9 to 1.9%); assay type: functional
[8] = system: 4T1; assay: Antitumour activity against mouse 4T1 cells implanted in BALB/c mouse assessed as inhibition in tumor growth at 10 umol/kg administered peri-tumor injection for 21 days relative to control; assay type: functional; conditions: 4T1, 504 h, time 21 day, read-out: TGI
[9] = system: MCF7; assay: Induction of apoptosis in human MCF7 cells assessed as late apoptotic cells at 5 uM after 12 hrs by annexinV-FITC/PI staining based flow cytometric analysis (reference value: 0.9 to 1.9%); assay type: functional
[10] = Toxicity in BALB/c mouse implanted with mouse 4T1 cells assessed as change in body weight at 10 umol/kg administered peri-tumor injection for 21 days; conditions: in vivo, other, 504 h, dose 10 µmol/kg, time 21 day
[11] = system: MCF7; assay: Induction of apoptosis in human MCF7 cells assessed as viable cells at 5 uM after 12 hrs by annexinV-FITC/PI staining based flow cytometric analysis (reference value: 95.4 to 97.6%); assay type: functional; conditions: read-out: Activity
[12] = molecular target: von Hippel-Lindau disease tumor suppressor/Vitamin D3 receptor (Homo sapiens) (UniProt P11473+P40337); assay: Protac activity at VHL/VDR in human MCF7 cells assessed as degradation of VDR protein level at 10 uM after 12 hrs by Western blot analysis; assay type: cell-based
[13] = Drug uptake in human MCF7 cells FITC labelled form of compound by flow cytometric analysis; assay type: ADME, cell-based; conditions: dose lower 2 µM, time lower 2 hrs, dose upper 16 µM, time upper 24 hrs
[14] = molecular target: T1, von Hippel-Lindau disease tumor suppressor/Estrogen receptor (Homo sapiens); assay: Protac activity at VHL/ERalpha in human MCF7 cells assessed as increase in ubiquitinated-ERalpha at 10 uM after 6 hrs in presence of MG-132 by Western blot analysis; assay type: cell-based
[15] = system: MCF7; assay: Induction of apoptosis in human MCF7 cells assessed as increase in necrotic cells after 12 hrs by annexinV-FITC/PI staining based flow cytometric analysis; assay type: functional, cell-based; conditions: dose 5-20 µM
[16] = system: A2780; assay: Cytotoxicity against human A2780 cells assessed as reduction in cell viability at 5 to 80 uM after 48 hrs by MTT assay; assay type: functional, cell-based; conditions: dose 5-80 µM
[17] = system: MCF7; assay: Cytotoxicity against human MCF7 cells assessed as reduction in cell viability after 48 hrs by MTT assay; assay type: functional, cell-based
[18] = system: MCF7; assay: Induction of apoptosis in human MCF7 cells assessed as necrotic cells at 20 uM after 12 hrs by annexinV-FITC/PI staining based flow cytometric analysis (reference value: 0.7 to 1.1%); assay type: functional
[19] = molecular target: T1, von Hippel-Lindau disease tumor suppressor/Estrogen receptor (Homo sapiens); assay: Protac activity at VHL/ERalpha in human A2780 cells assessed as degradation of ERalpha protein level at 10 uM after 12 hrs by Western blot analysis; assay type: cell-based
[20] = system: HUVEC; assay: Cytotoxicity against human HUVEC cells assessed as reduction in cell viability at 5 to 80 uM after 48 hrs by MTT assay; assay type: cell-based; conditions: dose 5-80 µM
[21] = system: MDA-MB-231; assay: Cytotoxicity against human MDA-MB-231 cells assessed as reduction in cell viability at 5 to 80 uM after 48 hrs by MTT assay; assay type: functional, cell-based; conditions: dose 5-80 µM
[22] = system: MCF7; assay: Induction of apoptosis in human MCF7 cells assessed as increase in late apoptotic cells after 12 hrs by annexinV-FITC/PI staining based flow cytometric analysis; assay type: functional, cell-based; conditions: dose 5-20 µM
[23] = system: MCF7; assay: Induction of apoptosis in human MCF7 cells assessed as viable cells at 20 uM after 12 hrs by annexinV-FITC/PI staining based flow cytometric analysis (reference value: 95.4 to 97.6%); assay type: functional; conditions: read-out: Activity
[24] = system: MCF7; assay: Induction of apoptosis in human MCF7 cells assessed as early apoptotic cells at 5 uM after 12 hrs by annexinV-FITC/PI staining based flow cytometric analysis (reference value: 0.8 to 1.6%); assay type: functional
[25] = system: MCF7; assay: Induction of apoptosis in human MCF7 cells assessed as necrotic cells at 5 uM after 12 hrs by annexinV-FITC/PI staining based flow cytometric analysis (reference value: 0.7 to 1.1%); assay type: functional
[26] = molecular target: von Hippel-Lindau disease tumor suppressor/Progesterone receptor (Homo sapiens) (UniProt P06401+P40337); assay: Protac activity at VHL/PR in human MCF7 cells assessed as degradation of PR protein level at 10 uM after 12 hrs by Western blot analysis; assay type: cell-based
[27] = Drug uptake in human MCF7 cells at 10 uM FITC labelled form of compound after 3 hrs by Hoechst 33258 staining based fluorescence microscopic analysis; assay type: ADME, cell-based; conditions: mcf7, 3 h
[28] = system: MCF7; assay: Induction of apoptosis in human MCF7 cells assessed as late apoptotic cells at 20 uM after 12 hrs by annexinV-FITC/PI staining based flow cytometric analysis (reference value: 0.9 to 1.9%); assay type: functional
[29] = system: MCF7; assay: Induction of apoptosis in human MCF7 cells assessed as early apoptotic cells at 20 uM after 12 hrs by annexinV-FITC/PI staining based flow cytometric analysis (reference value: 0.8 to 1.6%); assay type: functional
[30] = system: MCF7; assay: Cytotoxicity against human MCF7 cells assessed as reduction in cell viability at 20 uM after 48 hrs by MTT assay; assay type: functional, cell-based

T1 sequence (P03372 whole entry, looked up): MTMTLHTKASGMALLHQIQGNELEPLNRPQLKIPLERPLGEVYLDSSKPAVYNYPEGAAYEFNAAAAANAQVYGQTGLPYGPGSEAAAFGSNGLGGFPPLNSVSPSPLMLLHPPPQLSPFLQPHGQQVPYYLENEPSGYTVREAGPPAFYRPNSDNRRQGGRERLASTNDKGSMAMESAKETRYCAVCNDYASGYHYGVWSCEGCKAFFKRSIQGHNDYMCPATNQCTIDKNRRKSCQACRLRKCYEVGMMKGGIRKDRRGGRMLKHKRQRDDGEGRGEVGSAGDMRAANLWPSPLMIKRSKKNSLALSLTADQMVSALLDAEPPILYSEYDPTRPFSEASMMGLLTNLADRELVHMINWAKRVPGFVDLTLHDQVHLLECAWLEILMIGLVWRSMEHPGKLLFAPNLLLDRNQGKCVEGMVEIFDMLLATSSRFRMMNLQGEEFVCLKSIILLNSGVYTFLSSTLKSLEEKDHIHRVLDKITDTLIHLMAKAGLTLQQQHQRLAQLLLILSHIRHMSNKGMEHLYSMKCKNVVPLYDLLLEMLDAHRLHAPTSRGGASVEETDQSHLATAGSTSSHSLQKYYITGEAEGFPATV
T1 sequence (P40337 whole entry, looked up): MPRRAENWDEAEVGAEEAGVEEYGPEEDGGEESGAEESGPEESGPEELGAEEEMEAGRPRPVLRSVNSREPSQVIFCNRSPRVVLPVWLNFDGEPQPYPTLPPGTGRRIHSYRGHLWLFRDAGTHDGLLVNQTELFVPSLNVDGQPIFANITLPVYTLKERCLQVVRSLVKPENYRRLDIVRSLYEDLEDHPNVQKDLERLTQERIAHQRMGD
von Hippel-Lindau disease tumor suppressor/Progesterone receptor (Homo sapiens), sequence (P06401 whole entry, looked up): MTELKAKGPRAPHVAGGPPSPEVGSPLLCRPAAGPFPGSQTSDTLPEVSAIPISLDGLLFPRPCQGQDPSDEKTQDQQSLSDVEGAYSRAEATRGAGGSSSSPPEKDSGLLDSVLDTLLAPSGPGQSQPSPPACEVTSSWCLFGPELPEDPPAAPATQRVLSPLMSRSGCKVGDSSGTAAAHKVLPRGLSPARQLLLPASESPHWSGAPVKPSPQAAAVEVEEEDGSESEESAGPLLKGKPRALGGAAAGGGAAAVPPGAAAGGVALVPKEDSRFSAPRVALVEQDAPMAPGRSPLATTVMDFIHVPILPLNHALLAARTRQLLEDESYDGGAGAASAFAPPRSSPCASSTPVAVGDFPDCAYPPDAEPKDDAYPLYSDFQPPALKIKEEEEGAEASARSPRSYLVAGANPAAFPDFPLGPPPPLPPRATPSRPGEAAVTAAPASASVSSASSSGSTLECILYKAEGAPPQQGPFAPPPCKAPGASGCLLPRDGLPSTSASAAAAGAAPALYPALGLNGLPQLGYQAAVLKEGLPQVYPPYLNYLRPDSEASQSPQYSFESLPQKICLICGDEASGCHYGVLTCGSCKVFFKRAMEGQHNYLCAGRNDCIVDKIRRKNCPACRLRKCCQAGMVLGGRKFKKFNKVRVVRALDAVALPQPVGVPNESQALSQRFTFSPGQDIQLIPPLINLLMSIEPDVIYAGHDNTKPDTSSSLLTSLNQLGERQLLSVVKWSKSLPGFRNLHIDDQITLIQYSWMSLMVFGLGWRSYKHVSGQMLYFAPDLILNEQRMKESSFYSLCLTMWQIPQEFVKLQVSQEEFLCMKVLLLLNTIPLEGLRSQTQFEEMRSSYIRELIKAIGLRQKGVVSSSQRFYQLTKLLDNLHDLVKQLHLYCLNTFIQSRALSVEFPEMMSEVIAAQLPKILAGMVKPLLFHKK
von Hippel-Lindau disease tumor suppressor/Progesterone receptor (Homo sapiens), sequence (P40337 whole entry, looked up): as the sequence (P40337 whole entry, looked up) above
von Hippel-Lindau disease tumor suppressor/Vitamin D3 receptor (Homo sapiens), sequence (P11473 whole entry, looked up): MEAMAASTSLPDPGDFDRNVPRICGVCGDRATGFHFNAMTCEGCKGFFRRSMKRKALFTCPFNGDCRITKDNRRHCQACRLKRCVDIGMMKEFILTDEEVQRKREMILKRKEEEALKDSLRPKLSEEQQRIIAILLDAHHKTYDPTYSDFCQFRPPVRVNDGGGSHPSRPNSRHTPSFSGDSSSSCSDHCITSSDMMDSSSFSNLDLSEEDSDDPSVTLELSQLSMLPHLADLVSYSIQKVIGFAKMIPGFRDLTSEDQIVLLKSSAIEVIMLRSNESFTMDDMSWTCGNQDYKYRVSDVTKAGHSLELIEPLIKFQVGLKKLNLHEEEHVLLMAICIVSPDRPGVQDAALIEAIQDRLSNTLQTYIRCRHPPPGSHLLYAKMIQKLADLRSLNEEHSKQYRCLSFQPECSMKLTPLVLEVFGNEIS
von Hippel-Lindau disease tumor suppressor/Vitamin D3 receptor (Homo sapiens), sequence (P40337 whole entry, looked up): as the sequence (P40337 whole entry, looked up) above

Structure (SMILES): CC/C(=C(\c1ccccc1)c1ccc(OCCN(C)C)cc1)c1ccccc1 [TAMOXIFEN]
inhibition in vivo at 10 µmol/kg [8]: 36%
Activity [6]: Active

Structure (SMILES): CC[C@H](C)[C@H](NC(=O)[C@H](Cc1ccc(O)cc1)NC(=O)[C@@H]1C[C@@H](O)CN1C(=O)[C@H](C)NC(=O)[C@H](CC(C)C)NC(=O)CCCCCNC(=O)[C@H](CCC(N)=O)NC(=O)C(CC(C)(C)C)NC(=O)C(CC(C)(C)C)NC(=O)[C@H](CCCNC(=N)N)NC(=O)[C@@H]1CNC(=O)C(N[C@@H](CCCNC(=N)N)C(N)=O)CC(=O)N[C@@H]([C@@H](C)CC)C(=O)NC(CC(C)(C)C)C(=O)N1)C(N)=O (some centres undefined)
Activity [9]: 6%
Activity [10]: Non-Toxic
viability at 5 µM [11]: 87.2%
Activity [12]: inactive
Activity [1]: 26.2%
Drug uptake [13]: Dose-dependent effect and Tde
Activity [14]: Active
Activity [15]: Dose-dependent effect
inhibition in vivo at 10 µmol/kg [8]: 67%
Activity [2]: Active
Activity [16]: Active
Activity [17]: Dose-dependent effect
IC50 ([17]; MCF7, 48 h): 9.7 µM
viability at 10 µM [3]: 59.5%
Drug uptake [4]: Active
Activity [5]: 0.7%
Activity [18]: 44.6%
Activity [19]: Active
Activity [20]: Non-Toxic
Activity [21]: Active
Activity [22]: Dose-dependent effect
viability at 20 µM [23]: 28.8%
Activity [6]: Active
Activity [24]: 1.3%
Activity [25]: 5.5%
Activity [26]: inactive
Drug uptake [27]: Active
Activity [28]: 26.2%
Activity [7]: 13.6%
Activity [29]: 0.4%

Structure (SMILES): CC[C@H](C)[C@H](NC(=O)[C@H](Cc1ccc(O)cc1)NC(=O)[C@@H]1C[C@@H](O)CN1C(=O)[C@H](C)NC(=O)[C@H](CC(C)C)NC(=O)CCCCCNC(=O)[C@H](CCC(N)=O)NC(=O)[C@H](CC(C)C)NC(=O)[C@H](CC(C)C)NC(=O)[C@H](CCCNC(=N)N)NC(=O)[C@@H]1CNC(=O)C(N[C@@H](CCCNC(=N)N)C(N)=O)CC(=O)N[C@@H]([C@@H](C)CC)C(=O)N[C@@H](CC(C)C)C(=O)N1)C(N)=O (some centres undefined)
Activity [10]: Non-Toxic
Activity [1]: 8%
inhibition in vivo at 10 µmol/kg [8]: 52%
Activity [2]: Active
viability at 10 µM [3]: 85%
Drug uptake [4]: Active
Activity [5]: 1.3%
Activity [6]: Active
Activity [7]: 5.8%

Structure (SMILES): CC[C@H](C)[C@H](NC(=O)[C@H](Cc1ccc(O)cc1)NC(=O)[C@@H]1C[C@@H](O)CN1C(=O)[C@H](C)NC(=O)[C@H](CC(C)C)NC(=O)CCCCCNC(=O)[C@H](CCC(N)=O)NC(=O)[C@H](CC(C)C)NC(=O)[C@H](CC(C)C)NC(=O)[C@H](CCCNC(=N)N)NC(=O)[C@H](Cc1c[nH]cn1)NC(=O)[C@H](CC(C)C)NC(=O)[C@@H](NC(=O)[C@H](CCCCN)NC(=O)[C@@H](N)Cc1c[nH]cn1)[C@@H](C)CC)C(N)=O (H-HKILHRLLQ[Ahx]LA[Hyp]YI-NH2)
Activity [1]: 2.9%
Activity [2]: Active
viability at 10 µM [3]: 93.4%
Drug uptake [4]: Active
Activity [5]: 0.9%
Activity [7]: 2.7%
Activity [30]: Active

Second part, led by results:

Activity [2]: Active
Drug uptake [4]: Active
Structure (SMILES): CC[C@H](C)[C@H](NC(=O)[C@H](Cc1ccc(O)cc1)NC(=O)[C@@H]1C[C@@H](O)CN1C(=O)[C@H](C)NC(=O)[C@H](CC(C)C)NC(=O)CCCCCNC(=O)[C@H](CCC(N)=O)NC(=O)[C@H](CC(C)C)NC(=O)C(CC(C)(C)C)NC(=O)[C@H](CCCNC(=N)N)NC(=O)[C@@H]1CNC(=O)C(N[C@@H](CCCNC(=N)N)C(N)=O)CC(=O)N[C@@H]([C@@H](C)CC)C(=O)N[C@@H](CC(C)C)C(=O)N1)C(N)=O (some centres undefined)
Activity [1]: 12.7%
viability at 10 µM [3]: 78.5%
Activity [5]: 0.9%
Activity [6]: Active
Activity [7]: 7.9%

Activity [2]: Active
Drug uptake [4]: Active
Structure (SMILES): CC[C@H](C)[C@H](NC(=O)[C@H](Cc1ccc(O)cc1)NC(=O)[C@@H]1C[C@@H](O)CN1C(=O)[C@H](C)NC(=O)[C@H](CC(C)C)NC(=O)CCCCCNC(=O)[C@H](CCC(N)=O)NC(=O)C(CC(C)(C)C)NC(=O)[C@H](CC(C)C)NC(=O)[C@H](CCCNC(=N)N)NC(=O)[C@@H]1CNC(=O)C(N[C@@H](CCCNC(=N)N)C(N)=O)CC(=O)N[C@@H]([C@@H](C)CC)C(=O)N[C@@H](CC(C)C)C(=O)N1)C(N)=O (some centres undefined)
Activity [1]: 15.2%
viability at 10 µM [3]: 76.7%
Activity [5]: 0.4%
Activity [6]: Active
Activity [7]: 7.7%

Activity [2]: Active
Drug uptake [4]: Active
Structure (SMILES): CC[C@H](C)[C@H](NC(=O)[C@H](Cc1ccc(O)cc1)NC(=O)[C@@H]1C[C@@H](O)CN1C(=O)[C@H](C)NC(=O)[C@H](CC(C)C)NC(=O)CCCCCNC(=O)[C@H](CCC(N)=O)NC(=O)[C@H](CC(C)C)NC(=O)[C@H](CC(C)C)NC(=O)[C@H](CCCNC(=N)N)NC(=O)[C@@H]1CNC(=O)C(N[C@@H](CCCNC(=N)N)C(N)=O)CC(=O)N[C@@H]([C@@H](C)CC)C(=O)NC(CC(C)(C)C)C(=O)N1)C(N)=O (some centres undefined)
Activity [1]: 11.9%
viability at 10 µM [3]: 80.2%
Activity [5]: 0.7%
Activity [6]: Active
Activity [7]: 7.1%
